The text below walks through data of patent publication US10457687B2, “Aminoacid derivatives, a process for their preparation and pharmaceutical compositions containing them” (LES LABORATOIRES SERVIER, priority 2015, dated 2019).

The IC50 is the concentration at which inhibition is half-maximal. The inhibition is the drop in the measured response relative to a control, in per cent.

Mcl-1 protein, sequence (Q07820 whole entry): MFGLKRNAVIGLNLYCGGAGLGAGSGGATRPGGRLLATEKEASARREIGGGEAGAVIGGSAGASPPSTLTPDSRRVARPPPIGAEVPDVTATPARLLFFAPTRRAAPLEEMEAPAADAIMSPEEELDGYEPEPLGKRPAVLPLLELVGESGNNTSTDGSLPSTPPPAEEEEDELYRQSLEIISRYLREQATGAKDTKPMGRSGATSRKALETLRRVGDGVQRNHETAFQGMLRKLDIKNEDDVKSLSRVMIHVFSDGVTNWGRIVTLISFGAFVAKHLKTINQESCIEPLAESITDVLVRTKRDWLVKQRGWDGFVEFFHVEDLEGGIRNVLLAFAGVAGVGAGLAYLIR

For the first assay, the target named is Mcl-1 protein (Homo sapiens, UniProt Q07820). In words: Inhibition of Mcl-1 by the fluorescence polarisation technique (Method 1 or Method 2). Format: binding. The conditions noted are these: fluorescence polarisation, Fluorescein labelled ligand; Method 1 (not underlined) or Method 2 (underlined); read-out: IC50 (μM) Mcl-1 FP. The method in brief:
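Fluorescence polarisation competition of 11-point compound dilutions (5% DMSO final) against fluorescein-labelled ligand for Mcl-1. Method 1: 1 nM ligand, 5 nM protein in 10 mM HEPES, 150 mM NaCl, 0.05% Tween 20, pH 7.4; Method 2: 10 nM ligand, 10 nM protein in 20 mM Na2HPO4, 1 mM EDTA, 50 mM NaCl, pH 7.4.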
(Polarisation of emitted light reports the rotation of a fluorescent probe.)
With `CCc1sc2ncnc(NC(Cc3ccccc3)C(=O)O)c2c1-c1cccc2c1c(Cl)cn2CCCN1CCN(C)CC1` [Example 240, N-((5Sa)-5-{3-chloro-1-[3-(4-methylpiperazin-1-yl)propyl]-1H-indol-4-yl}-6-ethyl-thieno[2,3-d]pyrimidin-4-yl)-D-phenylalanine], the IC50 is 0.958 µM. As for `CCc1sc2ncnc(N[C@H](Cc3cccc4ccccc34)C(=O)O)c2c1-c1cccc2ccccc12` (single isomer, unassigned) [Example 186, N-[6-ethyl-5-(naphthalen-1-yl)thieno[2,3-d]pyrimidin-4-yl]-3-naphthalen-1-yl-D-alanine], the IC50 was 7.88 µM.

Turning to `CCc1sc2ncnc(NC(Cc3ccccc3)C(=O)O)c2c1-c1cc(Cl)c(O)c(Cl)c1C` [Example 52, N-[(5Ra)-5-(3,5-dichloro-4-hydroxy-2-methylphenyl)-6-ethylthieno[2,3-d]pyrimidin-4-yl]-D-phenylalanine], the half-inhibitory concentration (IC50) turned out to be 0.301 µM. Turning to `CCc1sc2ncnc(N[C@@H](C(=O)O)c3ccccc3-c3ccccc3)c2c1-c1cccc2ccccc12` (single isomer, unassigned) [Example 188], the IC50 turned out to be 21.3 µM.

For the compound `CCc1sc2ncnc(N[C@H](CC3CCCCC3)C(=O)O)c2c1-c1cccc2[nH]ccc12` (single isomer, unassigned) [Example 243, 3-cyclohexyl-N-[6-ethyl-5-(1H-indol-4-yl)thieno[2,3-d]pyrimidin-4-yl]-D-alanine], the IC50 is 0.073 µM. On the same count and under the same terms, for `CCc1sc2ncnc(NC(Cc3ccccc3)C(=O)O)c2c1-c1ccnc(Cl)c1C` [Example 78, N-[(5Sa)-5-(2-chloro-3-methylpyridin-4-yl)-6-ethylthieno[2,3-d]pyrimidin-4-yl]-D-phenylalanine] the value was 0.135 µM. Take `CCc1sc2ncnc(NC(Cc3ccccc3)C(=O)O)c2c1-c1cncc2ccccc12` [Example 81, N-[6-ethyl-(5Sa)-5-(isoquinolin-4-yl)thieno[2,3-d]pyrimidin-4-yl]-D-phenylalanine]: the IC50 is 20.2 µM. With `CC(C)c1sc2ncnc(N[C@H](Cc3ccccc3)C(=O)O)c2c1-c1cccc2ccccc12` (single isomer, unassigned) [Example 201, N-[5-(naphthalen-1-yl)-6-(propan-2-yl)thieno[2,3-d]pyrimidin-4-yl]-D-phenylalanine], the concentration for half-maximal inhibition (IC50) is 0.136 µM.

On to `CCc1sc2ncnc(N[C@H](CCc3ccccc3)C(=O)O)c2c1-c1cccc2ccccc12` [Example 169, (2R)-2-{[6-ethyl-5-(naphthalen-1-yl)thieno[2,3-d]pyrimidin-4-yl]amino}-4-phenylbutanoic acid], for which the IC50 was 2.1 µM. On the same count and under the same terms, for `O=C(O)[C@@H](Cc1ccccc1)Nc1ncnc2sc(I)c(-c3cccc4ccccc34)c12` [Example 211, N-[6-iodo-5-(naphthalen-1-yl)thieno[2,3-d]pyrimidin-4-yl]-D-phenylalanine] the value was 0.668 µM; for `CCc1sc2ncnc(N[C@H](Cc3ccccc3)C(=O)O)c2c1-c1cccc2cc[nH]c12` (single isomer, unassigned) [Example 71, N-[6-ethyl-5-(1H-indol-7-yl)thieno[2,3-d]pyrimidin-4-yl]-D-phenylalanine], 39 µM.

Still in this assay, the particulars now being: partial inhibitors; @ 7.4 μM test compound; read-out: percentage fluorescence polarisation inhibition, Mcl-1 FP.
In the case of `CCc1sc2ncnc(N[C@H](Cc3ccccc3)C(=O)O)c2c1-c1cccc2c1cnn2C` [Example 87, N-[6-ethyl-5-(1-methyl-1H-indazol-4-yl)thieno[2,3-d]pyrimidin-4-yl]-D-phenylalanine], the inhibition at 7.4 µM came to 62.6%.

The same assay, now with this note: partial inhibitors; @ 50 μM test compound.
Turning to `Cc1c(Cl)cccc1-c1c(C(C)C)sc2ncnc(N[C@@H](Cc3ccccc3)C(=O)O)c12` [Example 218, N-[(5Sa)-5-(3-chloro-2-methylphenyl)-6-(propan-2-yl)thieno[2,3-d]pyrimidin-4-yl]-L-phenylalanine], the “percentage fluorescence polarisation inhibition, Mcl-1 FP” value is listed as 71.5% @ 50 μM.

Still in this assay, the particulars now being: partial inhibitors; @ 200 μM test compound.
Consider `O=C(O)[C@@H](Cc1ccccc1)Nc1ncnc2sc(CO)c(-c3cccc4ccccc34)c12` [Example 197, N-[6-(hydroxymethyl)-(5Ra)-5-(naphthalen-1-yl)thieno[2,3-d]pyrimidin-4-yl]-D-phenylalanine], for which the “percentage fluorescence polarisation inhibition, Mcl-1 FP” value came to 54.1% @ 200 μM.
